The target in assay [1] is T1, μ-opioid receptor (Homo sapiens, UniProt P35372). Put plainly: μ-opioid receptor [35S]GTPγS functional assay, HEK-293 or CHO cells. Format: biochemical. The settings on record: for Emax: HEK-293 or CHO cells, relative to DAMGO. Here is the method:
[^35S]GTPγS functional assays were conducted using freshly thawed μ-receptor membranes prepared in-house from a cell line expressing recombinant opioid receptor in a HEK-293, CHO or U-2 OS cell background, or purchased from a commercial source (Perkin Elmer, Shelton, Conn.; or DiscovRx, Fremont, Calif.). Assay reactions were prepared by sequentially adding the following reagents to binding buffer (100 mM NaCl, 10 mM MgCl2, 20 mM HEPES, pH 7.4) on ice (final concentrations indicated): membrane protein (0.026 mg/mL), saponin ([…]), GDP ([…]) and [^35S]GTPγS (0.20 nM; Perkin Elmer, Shelton, Conn.). The prepared membrane solution (190 l/well) was transferred to 96-shallow well polypropylene plates containing 10 μl of 20× concentrated stock solutions of the agonist [D-Ala^2, N-methyl-Phe^4 Gly-ol^5]-enkephalin (DAMGO) prepared in dimethyl sulfoxide (DMSO). Plates were incubated for 30 min at about 25° C. with shaking. Reactions were terminated by rapid filtration onto 96-well Unifilter GF/B filter plates (Perkin Elmer, Shelton, Conn.) using a 96-well tissue harvester (Perkin Elmer, Shelton, Conn.) followed by three filtration washes with 200 μl of ice-cold wash buffer (10 mM NaH2PO4, 10 mM Na2HPO4, pH 7.4). Filter plates were subsequently dried at 50° C. for 2-3 hr. BetaScint scintillation cocktail (Perkin Elmer, Shelton, Conn.) was added (50 μl/well) and plates were counted using a Packard Top-Count for 1 min/well. Data were analyzed using the sigmoidal dose-response curve fitting functions in GraphPad PRISM v. 3.0, or an in-house function for non-linear, sigmoidal dose-response curve-fitting.
μ GTP EC50 is the concentration of a compound providing 50% of the maximal response for the compound at a μ-opioid receptor.
μ GTP Emax (%) is the maximal effect elicited by a compound relative to the effect elicited by DAMGO, a standard agonist. Generally, the μ GTP Emax (%) value measures the efficacy of a compound to treat or prevent pain or other Conditions.
In TABLE 2, activity response of certain Compounds of the Invention at the μ- and κ-opioid receptors using HEK-293 or CHO cells was determined as described above for functional assays.

Assay [2] has as its target T1, μ-opioid receptor. In words: μ-opioid receptor radioligand ([3H]-diprenorphine) dose-displacement binding assay, HEK-293 or CHO cells. Here is the method: Radioligand dose-displacement binding assays for μ-opioid receptors used 0.3 nM [^3H]-diprenorphine (Perkin Elmer, Shelton, Conn.), with […] membrane protein/well in a final volume of 500 μl binding buffer (10 mM MgCl2, 1 mM EDTA, 5% DMSO, 50 mM HEPES, pH 7.4). Reactions were carried out in the absence or presence of increasing concentrations of unlabeled naloxone. All reactions were conducted in 96-deep well polypropylene plates for 2 hr at room temperature. Binding reactions were terminated by rapid filtration onto 96-well Unifilter GF/C filter plates (Perkin Elmer, Shelton, Conn.), presoaked in 0.5% polyethylenimine using a 96-well tissue harvester (Perkin Elmer, Shelton, Conn.) followed by performing three filtration washes with 500 μl of ice-cold binding buffer. Filter plates were subsequently dried at 50° C. for 2-3 hours. BetaScint scintillation cocktail (Perkin Elmer, Shelton, Conn.) was added (50 l/well), and plates were counted using a Packard Top-Count for 1 min/well. The data were analyzed using the one-site competition curve fitting functions in GraphPad PRISM™ v. 3.0 or higher (San Diego, Calif.), or an in-house function for one-site competition curve-fitting.
(§1) In TABLE 1, binding affinity of certain Compounds of the Invention to the μ-, and κ-opioid receptors in HEK-293 or CHO cells was determined as described above.

For assay [3], the target named is T2, human κ opioid receptor (Homo sapiens, UniProt P41145). In words: κ-opioid receptor radioligand ([3H]-U69,593) dose-displacement binding assay, HEK-293 or CHO cells. On the set-up: expressed in transfected cells; host or cells: HEK-293 cells (in-house prep). The protocol: Membranes from recombinant HEK-293 cells expressing the human K opioid receptor (cloned in house) were prepared by lysing cells in ice cold hypotonic buffer (2.5 mM MgCl2, 50 mM HEPES, pH 7.4) (10 mL/10 cm dish) followed by homogenization with a tissue grinder/Teflon pestle. Membranes were collected by centrifugation at 30,000×g for 15 min at 4° C. and pellets were resuspended in hypotonic buffer to a final concentration of 1-3 mg/mL. Protein concentrations were determined using the BioRad protein assay reagent with bovine serum albumen as standard. Aliquots of κ receptor membranes were stored at −80° C.
Radioligand dose displacement assays used 0.4 nM [^3H]-U69,593 (GE Healthcare, Piscataway, N.J.; 40 Ci/mmole) with 15 μg membrane protein (recombinant K opioid receptor expressed in HEK 293 cells; in-house prep) in a final volume of 200 μl binding buffer (5% DMSO, 50 mM Trizma base, pH 7.4). Non-specific binding was determined in the presence of 10 μM unlabeled naloxone or U69,593. All reactions were performed in 96-well polypropylene plates for 1 hr at a temperature of about 25° C. Binding reactions were terminated by rapid filtration onto 96-well Unifilter GF/C filter plates (Perkin Elmer, Shelton, Conn.) presoaked in 0.5% polyethylenimine (Sigma). Harvesting was performed using a 96-well tissue harvester (Perkin Elmer, Shelton, Conn.) followed by five filtration washes with 200 μl ice-cold binding buffer. Filter plates were subsequently dried at 50° C. for 1-2 hours. Fifty μl/well scintillation cocktail (Perkin Elmer, Shelton, Conn.) was added and plates were counted in a Packard Top-Count for 1 min/well.
as §1

In assay [4] the target is T1, μ-opioid receptor. In words: μ-opioid receptor [35S]GTPγS functional assay, U-2 OS cells. Format: biochemical. On the set-up: host or cells: U-2 OS cells. The note with it: for Emax: U2-OS cells, relative to DAMGO. A digest of the protocol:
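U-2 OS membranes expressing recombinant human μ-receptor (0.026 mg/mL) were incubated with compound, […], saponin and [35S]GTPγS 0.20 nM in HEPES/NaCl/MgCl2 buffer pH 7.4 for 30 min at about 25° C. Filter-bound radioactivity gave sigmoidal fits for EC50; Emax is relative to DAMGO.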

Assay [5] concerns the target T2, human κ opioid receptor. Put plainly: κ-opioid receptor [35S]GTPγS functional assay, U-2 OS cells. The settings on record: for Emax: U2-OS cells, relative to U69,593. Format: biochemical. On the set-up: expressed in transfected cells; host or cells: U-2 OS cells (in-house membranes). The method, boiled down: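 Membranes from U-2 OS cells expressing human κ receptor (0.026 μg/μl protein) were incubated with agonist, 10 μg/mL saponin, 3 μM GDP and 0.20 nM [35S]GTPγS in pH 7.4 HEPES buffer for 30 min at about 25 °C. Bound radioactivity was measured after filtration. EC50 was taken at half-maximal response; Emax is relative to U69,593.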

Each structure is given as a SMILES string.

T1 sequence (P35372 whole entry, species assumed): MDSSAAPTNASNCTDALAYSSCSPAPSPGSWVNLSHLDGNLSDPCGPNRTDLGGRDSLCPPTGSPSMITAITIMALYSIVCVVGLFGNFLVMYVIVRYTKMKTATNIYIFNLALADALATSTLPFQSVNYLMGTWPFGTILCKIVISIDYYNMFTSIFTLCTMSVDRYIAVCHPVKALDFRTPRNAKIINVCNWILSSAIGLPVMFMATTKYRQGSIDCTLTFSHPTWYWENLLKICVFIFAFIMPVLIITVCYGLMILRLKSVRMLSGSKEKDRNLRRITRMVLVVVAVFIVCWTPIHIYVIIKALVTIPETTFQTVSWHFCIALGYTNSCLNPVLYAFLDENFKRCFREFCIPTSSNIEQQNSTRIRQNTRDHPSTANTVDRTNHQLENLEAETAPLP
T2 sequence (P41145 whole entry): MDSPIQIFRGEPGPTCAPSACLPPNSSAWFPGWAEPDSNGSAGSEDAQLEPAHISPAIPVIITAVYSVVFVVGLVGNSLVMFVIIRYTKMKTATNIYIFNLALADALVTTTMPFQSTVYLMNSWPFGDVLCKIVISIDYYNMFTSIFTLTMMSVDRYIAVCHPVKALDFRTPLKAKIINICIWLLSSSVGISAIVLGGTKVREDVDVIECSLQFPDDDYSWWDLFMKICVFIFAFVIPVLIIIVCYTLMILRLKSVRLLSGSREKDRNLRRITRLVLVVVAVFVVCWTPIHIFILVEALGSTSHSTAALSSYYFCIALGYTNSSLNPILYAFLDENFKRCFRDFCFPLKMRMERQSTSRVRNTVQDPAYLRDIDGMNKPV

Molecule `COc1ccc2c(c1)[C@]13CCN(CC4CC4)[C@H](C2)[C@]1(O)C[C@H](C)[C@H](O)C3` [Compound 3, (4bR,6R,7S,8aS,9R)-11-(cyclopropylmethyl)-3-methoxy-7-methyl-5,6,7,8,9,10-hexahydro-8aH-9,4b-(epiminoethano)phenanthrene-6,8a-diol] had an EC50 at μ-opioid receptor [1] of 2750 nM. For the same molecule, on μ-opioid receptor [1], the Emax amounted to 58.7 ± 4.18%. Also, the Ki on μ-opioid receptor [2] was 6140 ± 963 nM; at human κ opioid receptor [3] it was 3010 ± 339 nM.

In the case of `COc1ccc2c(c1)[C@]13CCN(CC4CC4)[C@H](C2)[C@]1(O)C[C@H](CO)[C@H](O)C3` [Compound 7, (4bR,6R,7R,8aS,9R)-11-(cyclopropylmethyl)-7-(hydroxymethyl)-3-methoxy-5,6,7,8,9,10-hexahydro-8aH-9,4b-(epiminoethano)phenanthrene-6,8a-diol], on μ-opioid receptor [1], a half-maximal effect (EC50) was put at 4910 nM and the Emax came to 53.7 ± 4.37%. For the same molecule, the Ki on μ-opioid receptor [2] was 10800 ± 843 nM. The molecule also had a Ki on human κ opioid receptor [3] of 7300 ± 1640 nM.

With `CN(C)[C@H]1CC[C@@]2(O)[C@H]3Cc4ccc(O)cc4[C@@]2(CCN3CC2CC2)C1` [Compound 10, (4bR,6S,8aS,9R)-11-(cyclopropylmethyl)-6-(dimethylamino)-5,6,7,8,9,10-hexahydro-8aH-9,4b-(epiminoethano)phenanthrene-3,8a-diol], the EC50 was 4.69 ± 0.74 nM at μ-opioid receptor [4], 0.79 ± 0.07 nM at human κ opioid receptor [5] and over 20000 nM on μ-opioid receptor [1]. The Emax on μ-opioid receptor [4] was found to be 33 ± 1.15%; at human κ opioid receptor [5], 101 ± 6.23%; at μ-opioid receptor [1], 2.5%. Besides, the Ki is 3.84 ± 1.36 nM on μ-opioid receptor [2] and 0.057 ± 0.01 nM on human κ opioid receptor [3].

Take `NCCN[C@@H]1CC[C@@]2(O)[C@H]3Cc4ccc(O)cc4[C@@]2(CCN3CC2CC2)C1` [Compound 11, (4bR,6R,8aS,9R)-6-((2-aminoethyl)amino)-11-(cyclopropylmethyl)-5,6,7,8,9,10-hexahydro-8aH-9,4b-(epiminoethano)phenanthrene-3,8a-diol]: the values for the EC50 at μ-opioid receptor [4], at human κ opioid receptor [5] and on μ-opioid receptor [1] were 37.9 ± 12 nM, 2.75 ± 0.48 nM and over 20000 nM, respectively. For the same molecule, the Emax came out at 70 ± 8.08% on μ-opioid receptor [4], 119 ± 0.58% at human κ opioid receptor [5] and 6.33 ± 1.67% at μ-opioid receptor [1]. For the same molecule, the Ki on μ-opioid receptor [2] was determined as 71 ± 28.1 nM; on human κ opioid receptor [3], 0.29 ± 0.049 nM.

For the molecule `N=C(N)NCCN[C@@H]1CC[C@@]2(O)[C@H]3Cc4ccc(O)cc4[C@@]2(CCN3CC2CC2)C1` [Compound 12, 1-(2-(((4bR,6R,8aS,9R)-11-(cyclopropylmethyl)-3,8a-dihydroxy-6,7,8,8a,9,10-hexahydro-5H-9,4b-(epiminoethano)phenanthren-6-yl)amino)ethyl)guanidine], the concentration for a half-maximal effect (EC50) is 32.7 ± 2.82 nM at μ-opioid receptor [4], 5.06 ± 0.29 nM at human κ opioid receptor [5] and over 20000 nM at μ-opioid receptor [1]. The Emax on μ-opioid receptor [4] came out at 64.7 ± 5.17%; on human κ opioid receptor [5], 105 ± 1.76%; at μ-opioid receptor [1], 5.33 ± 0.88%. For the same molecule, the inhibition constant Ki on μ-opioid receptor [2] was determined as 53.2 ± 8.9 nM; on human κ opioid receptor [3] it was 0.29 ± 0.13 nM.

Consider `NCCCCN[C@@H]1CC[C@@]2(O)[C@H]3Cc4ccc(O)cc4[C@@]2(CCN3CC2CC2)C1` [Compound 14, (4bR,6R,8aS,9R)-6-((4-aminobutyl)amino)-11-(cyclopropylmethyl)-5,6,7,8,9,10-hexahydro-8aH-9,4b-(epiminoethano)phenanthrene-3,8a-diol], for which the concentration giving a half-maximal response (EC50) at μ-opioid receptor [4] is 85.6 ± 3.31 nM; at human κ opioid receptor [5], 5.47 ± 0.3 nM; at μ-opioid receptor [1] it was over 20000 nM. Besides, the results for the Emax on μ-opioid receptor [4], at human κ opioid receptor [5] and at μ-opioid receptor [1] were 74.3 ± 2.19%, 112 ± 5.13% and 8.67 ± 2.96%, respectively. Besides, the Ki on μ-opioid receptor [2] worked out at 124 ± 43.5 nM; on human κ opioid receptor [3] it was 0.56 ± 0.052 nM.

Turning to `N=C(N)NCCCN[C@@H]1CC[C@@]2(O)[C@H]3Cc4ccc(O)cc4[C@@]2(CCN3CC2CC2)C1` [Compound 15, 1-(3-(((4bR,6R,8aS,9R)-11-(cyclopropylmethyl)-3,8a-dihydroxy-6,7,8,8a,9,10-hexahydro-5H-9,4b-(epiminoethano)phenanthren-6-yl)amino)propyl)guanidine], the EC50 at μ-opioid receptor [4] was 41.5 ± 8.55 nM; at human κ opioid receptor [5], 12.8 ± 1.3 nM; at μ-opioid receptor [1], 1110 ± 447 nM. The Emax worked out at 76.3 ± 3.38% on μ-opioid receptor [4], 108 ± 2.65% on human κ opioid receptor [5] and 11.3 ± 0.33% on μ-opioid receptor [1]. The Ki on μ-opioid receptor [2] is 54.1 ± 10.1 nM; at human κ opioid receptor [3] it was 0.53 ± 0.13 nM.

As for `N=C(N)NCCCCN[C@@H]1CC[C@@]2(O)[C@H]3Cc4ccc(O)cc4[C@@]2(CCN3CC2CC2)C1` [Compound 16, 1-(4-(((4bR,6R,8aS,9R)-11-(cyclopropylmethyl)-3,8a-dihydroxy-6,7,8,8a,9,10-hexahydro-5H-9,4b-(epiminoethano)phenanthren-6-yl)amino)butyl)guanidine], the EC50 on μ-opioid receptor [4] was 53.7 ± 11.5 nM; on human κ opioid receptor [5], 15 ± 1.15 nM; at μ-opioid receptor [1] it was 811 ± 442 nM. Moreover, the results for the Emax at μ-opioid receptor [4], on human κ opioid receptor [5] and on μ-opioid receptor [1] were 78 ± 3.61%, 105 ± 2.89% and 9 ± 0.58%, respectively. The values for the Ki on μ-opioid receptor [2] and at human κ opioid receptor [3] were 70.5 ± 13.8 nM and 0.48 ± 0.055 nM, respectively.

Consider `N=C(N)NCC(=O)N[C@@H]1CC[C@@]2(O)[C@H]3Cc4ccc(O)cc4[C@@]2(CCN3CC2CC2)C1` [Compound 20, N-((4bR,6R,8aS,9R)-11-(cyclopropylmethyl)-3,8a-dihydroxy-6,7,8,8a,9,10-hexahydro-5H-9,4b-(epiminoethano)phenanthren-6-yl)-2-guanidinoacetamide], for which the EC50 is 394 ± 57.8 nM at μ-opioid receptor [4], 62.3 ± 2.37 nM at human κ opioid receptor [5] and over 20000 nM on μ-opioid receptor [1]. Moreover, the figures for the Emax at μ-opioid receptor [4], at human κ opioid receptor [5] and at μ-opioid receptor [1] were 62.7 ± 4.26%, 111 ± 2.4% and 7.33 ± 0.88%, respectively. For the same molecule, the inhibition constant (Ki) on μ-opioid receptor [2] is 449 ± 53.5 nM; on human κ opioid receptor [3], 3.23 ± 0.7 nM.

Source of the values: patent US20200148646A1, “6-S[…] 7-S[…] ANALOGS AND THE USE THEREOF” (Purdue Pharma, L.P., priority 2013, published 2020).
